Assay results as given in US4562287A, “2-(4-Biphenylyl)-4-hexenoic acid and derivatives thereof having anti-inflammatory activity” (priority 1983, dated 1985).
Where a name gives a salt, the structure may show the parent alone.

Assays:
Carragenine edema = assay: Edema induced by different substances: carragenine (Table 3); format: in vivo
Excerpt: (§1) |Edema induced by different substances.

Kaolin edema = assay: Edema induced by different substances: kaolin (Table 3); format: in vivo
Excerpt: as §1

Yeast edema = assay: Edema induced by different substances: yeast (Table 3); format: in vivo
Excerpt: |Edema induced by different substances. | % edema inhibition

Serotonin edema = assay: Edema induced by different substances: serotonin (Table 3); format: in vivo
Excerpt: as §1

Dextrose edema = assay: Edema induced by different substances: dextrose (Table 3); format: in vivo
Excerpt: as §1

[1] = test system: capillary permeability (Histamine); assay: Effect on the capillary permeability, histamine; format: in vivo; conditions: 200 mg/Kg p.o., checks 21.33, 200 mg/kg
Excerpt: (§2) |Effect on the capillary permeability

[2] = test system: capillary permeability (Dextran); assay: Effect on the capillary permeability, dextran; format: in vivo; conditions: 200 mg/Kg p.o., checks 14.83, 200 mg/kg
Excerpt: as §2

[3] = test system: Cotton-pellets induced granuloma; assay: Cotton-pellets induced granuloma; format: in vivo; conditions: 200 mg/Kg p.o.
Excerpt: | Cotton-pellets induced granuloma.

[4] = test system: capillary permeability (Serotonin); conditions: 200 mg/Kg p.o., checks 18.16
[5] = test system: Carragenine induced edema; assay: Carragenine induced edema, first test (Table 2); format: in vivo
Excerpt: |ANTI-INFLAMMATORY ACTIVITY. |Carragenine induced edema, first test.

Joint's diameter = Joint's diameter in arthritis (Table 7); format: in vivo; design: unit not given here
SH Groups in serum = assay: SH groups in serum (Table 8); format: in vivo; conditions: arthritis checks 70, 77
[6] = test system: erytrocytes sedimetation rate (ESR); assay: Erytrocytes sedimetation rate (ESR) (Table 8); format: in vivo; design: unit not given here; conditions: arthritis checks 41, 56
[7] = test system: Carragenine induced edema; assay: Anti-inflammatory activity on carragenine induced edema (Table 11); format: in vivo; conditions: for % inhibition: 50 mg/Kg p.o.
ulcerogenic effect = assay: Ulcerogenic effect; format: in vivo; conditions: dose 50 mg
[8] = test system: Freund's adjuvant induced arthritis; assay: Freund's adjuvant induced arthritis, edema inhibition
[9] = 20 mg/Kg p.o., 1 week, arthritis checks 0.48, 0.38
[10] = 20 mg/Kg p.o., 2 weeks, arthritis checks 0.71, 0.75
[11] = 20 mg/Kg p.o., 3 weeks, arthritis checks 0.81, 0.79
[12] = 20 mg/Kg p.o., 4 weeks, arthritis checks 0.85, 0.89
[13] = 40 mg/Kg p.o., 1 week, arthritis checks 0.48, 0.38
[14] = 40 mg/Kg p.o., 2 weeks, arthritis checks 0.71, 0.75
[15] = 40 mg/Kg p.o., 3 weeks, arthritis checks 0.81, 0.79
[16] = 40 mg/Kg p.o., 4 weeks, arthritis checks 0.85, 0.89

CC=CCC(C(=O)O)c1ccc(-c2ccccc2)cc1 (single isomer, unassigned; (-)) [SCR 156, (-) 2-(4-biphenylyl)-4-hexenoic acid]
% edema inhibition (Carragenine edema; 50 mg/Kg p.o., 50 mg/kg): 9% | % edema inhibition (Carragenine edema; 100 mg/Kg p.o., 100 mg/kg): 31% | % edema inhibition (Carragenine edema; 200 mg/Kg p.o., 200 mg/kg): 23% | % edema inhibition (Kaolin edema; 50 mg/Kg p.o., 50 mg/kg): 32% | % edema inhibition (Kaolin edema; 100 mg/Kg p.o., 100 mg/kg): 26% | % edema inhibition (Kaolin edema; 200 mg/Kg p.o., 200 mg/kg): 28% | % edema inhibition (Yeast edema; 50 mg/Kg p.o.): 13% | % edema inhibition (Yeast edema; 100 mg/Kg p.o., 100 mg/kg): 5% | % edema inhibition (Yeast edema; 200 mg/Kg p.o., 200 mg/kg): 7% | % edema inhibition (Serotonin edema; 50 mg/Kg p.o., 50 mg/kg): 0% | % edema inhibition (Serotonin edema; 100 mg/Kg p.o., 100 mg/kg): 13% | % edema inhibition (Serotonin edema; 200 mg/Kg p.o., 200 mg/kg): 0% | % edema inhibition (Dextrose edema; 50 mg/Kg p.o., 50 mg/kg): 14% | % edema inhibition (Dextrose edema; 100 mg/Kg p.o., 100 mg/kg): 5% | % edema inhibition (Dextrose edema; 200 mg/Kg p.o., 200 mg/kg): 12% | Effect on the capillary permeability, .0. m.micron [1]: 21.00 m.micron | Effect on the capillary permeability, .0. m.micron [2]: 13.58 m.micron | % inhibition [3]: 11% | Effect on the capillary permeability, .0. m.micron [4]: 16.43 m.micron

CC=CCC(C(=O)O)c1ccc(-c2ccccc2)cc1 (single isomer, unassigned) [SCR 153, Triethanolamine salt of dextrogyre form]
% inhibition ([5]; 12.5 mg/Kg p.o.): 24% | % inhibition ([5]; 25 mg/Kg p.o.): 29% | % inhibition ([5]; 50 mg/Kg p.o.): 45% | % inhibition ([5]; 100 mg/Kg p.o.): 53% | Joint's diameter (Joint's diameter; [9]): 0.46 | Joint's diameter (Joint's diameter; [10]): 0.61 | Joint's diameter (Joint's diameter; [11]): 0.62 | Joint's diameter (Joint's diameter; [12]): 0.73 | Joint's diameter (Joint's diameter; [13]): 0.24 | Joint's diameter (Joint's diameter; [14]): 0.39 | Joint's diameter (Joint's diameter; [15]): 0.44 | Joint's diameter (Joint's diameter; [16]): 0.52 | SH groups diminution in % (SH Groups in serum; 20 mg/Kg p.o.): 79% | SH groups diminution in % (SH Groups in serum; 40 mg/Kg p.o.): 48% | E.S.R. ([6]; 20 mg/Kg p.o.): 59 | E.S.R. ([6]; 40 mg/Kg p.o.): 32 | anti-inflammatory effect compared with 5 mg of indomethacin ([7]; 50 mg SCR 153 vs 5 mg indomethacin): near equal to the one obtained with 5 mg of indomethacin | % inhibition [7]: 37% | ulcerogenic effect (ulcerogenic effect): it is doubtful that above dose (50 mg) of SCR 153 could have any ulcerogenic effect | Edema inhibition % ([8]; 20 mg/Kg p.o., 2 days): 40% | Edema inhibition % ([8]; 20 mg/Kg p.o., 4 days): 24% | Edema inhibition % ([8]; 20 mg/Kg p.o., 8 days): 52% | Edema inhibition % ([8]; 20 mg/Kg p.o., 12 days): 49% | Edema inhibition % ([8]; 20 mg/Kg p.o., 16 days): 30% | Edema inhibition % ([8]; 20 mg/Kg p.o., 20 days): 22% | Edema inhibition % ([8]; 20 mg/Kg p.o., 24 days): 10% | Edema inhibition % ([8]; 40 mg/Kg p.o., 2 days): 60% | Edema inhibition % ([8]; 40 mg/Kg p.o., 4 days): 40% | Edema inhibition % ([8]; 40 mg/Kg p.o., 8 days): 56% | Edema inhibition % ([8]; 40 mg/Kg p.o., 12 days): 61% | Edema inhibition % ([8]; 40 mg/Kg p.o., 16 days): 59% | Edema inhibition % ([8]; 40 mg/Kg p.o., 20 days): 56% | Edema inhibition % ([8]; 40 mg/Kg p.o., 24 days): 55%

CCCCC1C(=O)N(c2ccccc2)N(c2ccc(O)cc2)C1=O (stereo not drawn) [Oxyphenbutazone, reference compound]
% inhibition [3]: 24% | % inhibition [7]: 41%

CC(C)Cc1ccc(C(C)C(=O)O)cc1 (stereo not drawn) [Ibuprofen]
% inhibition ([5]; 12.5 mg/Kg p.o.): 27% | % inhibition ([5]; 25 mg/Kg p.o.): 33% | % inhibition ([5]; 50 mg/Kg p.o.): 47% | % inhibition ([5]; 100 mg/Kg p.o.): 54% | Joint's diameter (Joint's diameter; [9]): 0.31 | Joint's diameter (Joint's diameter; [10]): 0.53 | Joint's diameter (Joint's diameter; [11]): 0.65 | Joint's diameter (Joint's diameter; [12]): 0.81 | Joint's diameter (Joint's diameter; [13]): 0.35 | Joint's diameter (Joint's diameter; [14]): 0.60 | Joint's diameter (Joint's diameter; [15]): 0.75 | Joint's diameter (Joint's diameter; [16]): 0.80 | SH groups diminution in % (SH Groups in serum; 20 mg/Kg p.o.): 78% | SH groups diminution in % (SH Groups in serum; 40 mg/Kg p.o.): 73% | E.S.R. ([6]; 20 mg/Kg p.o.): 58 | E.S.R. ([6]; 40 mg/Kg p.o.): 30 | % inhibition [7]: 40% | Edema inhibition % ([8]; 20 mg/Kg p.o., 2 days): 34% | Edema inhibition % ([8]; 20 mg/Kg p.o., 4 days): 29% | Edema inhibition % ([8]; 20 mg/Kg p.o., 8 days): 19% | Edema inhibition % ([8]; 20 mg/Kg p.o., 12 days): 24% | Edema inhibition % ([8]; 20 mg/Kg p.o., 16 days): 14% | Edema inhibition % ([8]; 20 mg/Kg p.o., 24 days): 4% | Edema inhibition % ([8]; 40 mg/Kg p.o., 2 days): 32% | Edema inhibition % ([8]; 40 mg/Kg p.o., 4 days): 17% | Edema inhibition % ([8]; 40 mg/Kg p.o., 8 days): 26% | Edema inhibition % ([8]; 40 mg/Kg p.o., 12 days): 19% | Edema inhibition % ([8]; 40 mg/Kg p.o., 16 days): 27% | Edema inhibition % ([8]; 40 mg/Kg p.o., 20 days): 19% | Edema inhibition % ([8]; 40 mg/Kg p.o., 24 days): 9%
